We go through 5 compounds from patent US20140336187A1, “METHODS FOR TREATING LEISHMANIASIS” (HOWARD UNIVERSITY, priority 2011, published 2014).

The subject of data set [1] is L. donovani amastigotes. Put plainly: Antileishmanial activity on L. donovani amastigotes (resazurin assay). The class given is cell-based, Leishmania donovani. To be noted: for IC50: Leishmania donovani, L. donovani amastigotes, 48 hrs exposure, resazurin assay, means ± S.E., read-out: IC50 (μM) Amastigotes; for SI Values Amastigotes: SI = IC50 (mouse fibroblast) ÷ IC50 (amastigotes). Here is the method: Amastigotes were grown in MAA/20 medium (Amastigote medium consisted of: M199 medium supplemented with 0.5% Tryptone broth, 0.01 mM bathocuproinedisulfonic acid, 0.108 mM L-Cysteine, 15 mM D-glucose, 0.685 mM L-glutamine, and 0.025 mM Hemin and 20% fetal calf serum (FCS) at a pH of 5.5).
Amastigotes were plated at a concentration of 2×10^5 cells/[…] 24 hrs before treatment with various compounds. Amastigotes were treated with dilutions of compounds in 96-well microtitre plates. Dilutions of compounds ranging from 0.03 μM to 44 μM were prepared and added to amastigotes. Amastigotes were exposed to compounds for 48 hrs and were incubated at 37° C. […] After the incubation period, 20 μl Alamar Blue (12.5 mg resazurin dissolved in 100 ml distilled water) (Mikes and Steverding, 2000) were added to each well and plates were incubated for another 2 hrs. […] Decrease of fluorescence (inhibition) was expressed as percentage of the fluorescence of control cultures and was plotted against the concentrations of compounds. The IC50 values were calculated from the sigmoidal inhibition curves. Amphotericin B was used as a reference drug.

For data set [2], the system named is NIH 3T3 BALB/c mouse fibroblast cell line. In words: Cytotoxic assessment on NIH 3T3 BALB/c mouse fibroblasts (resazurin assay). To be noted: read-out: IC50 (μM) Fibroblasts; NIH 3T3 BALB/c mouse fibroblasts; 48 hrs; resazurin assay; means ± S.E.
Experimental: Fibroblasts cells (4×10^4 cells/nil and adding 100 μl per well) were incubated with different concentrations of the naphthoquinone compounds (FIGS. 1) (3, 7, 13, 29, 33, and 44 μM) for 48 hrs after which viability of live fibroblast cells was determined by the Resazurin Method using a microplate reader (Bio-Tek Instruments EL311).
NIH 3T3 mouse fibroblasts were maintained in Roswell Park Memorial Institute (RPMI) medium supplemented with 10% Fetal calf serum, 50 units/ml penicillin, 50 units/ml streptomycin B in a humidified incubator at 37° C. in the presence of 5% CO2 (Scala et al., 2010).
Assays were performed to assess the cytotoxicity of these compounds in 96-well microtiter plates, with each well containing 100 μl of RPMI medium supplemented with 10% bovine calf scrum with 50 U/ml Pen-Strep. The cells were plated at a concentration of 4×10^3 cells/well (4×10^4 cells/ml). Fibroblast cells were then incubated with compounds for 48 hrs and inspected under an inverted microscope to assure growth of the controls and sterile conditions. 10 μl of resazurin solution (12.5 mg resazurin dissolved in 100 nil distilled water) were added to each well and the plates were incubated for another 2 hrs. The plates were read with a microplate reader at 570 nm. Experiments were done at least 3 times in triplicates (Scala et al., 2010).
Cell viability was determined using Resazurin Assay. The IC50 values were calculated and expressed as means±S.E (standard error).
The subject of data set [3] is L. donovani promastigotes. Put plainly: Antileishmanial activity on L. donovani promastigotes (resazurin cell viability assay). To be noted: for IC50: L. donovani promastigotes, resazurin assay, 0.03 to 44 μM, means ± S.E. of three experiments, read-out: IC50 (μM) Promastigotes; for SI Values Promastigotes: SI = IC50 (mouse fibroblast) ÷ IC50 (promastigotes). The data set is classed as cell-based, Leishmania donovani. Here is the method:
Approximately 5×10^5 promastigotes/ml of L. donovani Khartum strain were inoculated into Yeager's Liver infusion tryptose (YLIT) medium or Brain Heart Infusion (BHI) broth (Difco), supplemented with glucose (2.5 mg/ml), 50 U/ml Pen-Strep and 0.005 mM Hemin at 25-26° C. and subcultured bi-weekly, Mikus et al., Parasitol Int., 48(3):265-9 (2000) (Mikus and Steverding, 2000).
(§1) The Leishmanicidal properties of fifteen naphthoquinone compounds (FIG. 1) on L. donovani promastigotes proliferation were assessed by the resazurin cell viability assay. Promastigotes from axenic culture were harvested during the exponential phase of growth (at least 5-day old culture), incubated at a concentration of 2×10^5 cells/200 μl with and without dilutions of compounds in 96-well microtitre plates. Dilutions of compounds covering 0.03 μM to 44 μM were prepared. […] 20 μl Alamar Blue (12.5 mg resazurin dissolved in 100 ml distilled water (Sigma #R7017)) (Mikes and Steverding, 2000) were added to each well and plates were incubated for another 2 hrs. […] Decrease in fluorescence (inhibition), were expressed as percentage of the fluorescence of control cultures and were plotted against the concentrations of compounds. The IC50 values were calculated from the sigmoidal inhibition curves.

Data set [4] concerns L. donovani promastigotes. In words: Dose and time-dependent inhibitory effect on L. donovani promastigotes (2, 4, 6, 24 hours exposure). The data set is classed as cell-based, Leishmania donovani. To be noted: Leishmania donovani, promastigotes, means ± S.E. The method, then: as §1
A time and dose-dependent inhibitory effect of all 15 imido-substituted naphthoquinone compounds was assessed on their activity on promastigotes of L. donovani. Promastigotes were plated in 96-well plates and incubated in different concentrations of each compound (0.03 to 44 μM), incubated for two hours and viabilities assayed by the resazurin assay. A two hour exposure was assessed by calculation of IC50 values of each compound. Values are means±S.E. (Standard Error).
A time and dose-dependent inhibitory effect of all 15 imido-substituted naphthoquinone compounds was assessed on their activity on promastigotes of L. donovani. Promastigotes were plated in 96-well plates and incubated in different concentrations of each compound (0.03 to 44 μM), incubated for four hours and cell viabilities assayed by the resazurin assay. A four hour exposure was assessed by calculation of IC50 values of each compound. Values are means±S.E. (Standard Error).
Promastigotes were plated in 96-well plates and incubated in different concentrations of each compound (0.03 to 44 μM), incubated for six hours and cell viabilities assayed by the resazurin assay. A six hour exposure was assessed by calculation of IC50 values of each compound. Values are means±S.E. (Standard error).
A time and dose-dependent inhibitory effect of all 15 imido-substituted naphthoquinone compounds was assessed on their activity on promastigotes of L. donovani. Promastigotes were plated in 96-well plates and incubated in different concentrations of each compound (0.03 to 44 μM), incubated for twenty four hours and cell viabilities assayed by the resazurin assay. A twenty four hour exposure was assessed by calculation of IC50 values of each compound. Values are means±S.E. (Standard Error).

Where [5] appears, read: read-out: Antileishmanial Activity IC50 (μM) 2 hours, 2 hours exposure.
The mark [6] stands for this setting: read-out: Antileishmanial Activity IC50 (μM) 4 hours, 4 hours exposure.
Setting [7] is: 6 hours exposure, read-out: Antileishmanial Activity IC50 (μM) 6 hours.
Where [8] appears, read: 24 hours exposure, read-out: Antileishmanial Activity IC50 (μM) 24 hours.

Where “and” joins values, the source holds several entries; their conditions need not be identical. Equal values may be shown once.

`O=C1C(Cl)=C(N(C(=O)c2ccc(Cl)cc2)C(=O)c2ccc(Cl)cc2)C(=O)c2ccccc21` [IMDNQ1, 4-Chloro-N-(4-chlorobenzoyl)-N-(3-chloro-1,4-dioxo-1,4-dihydronaphthalen-2-yl)-benzamide] had a melting point of 212 to 213 °C. Also, in data set [1], the IC50 was 11.8 ± 9.7 µM; the “SI Values Amastigotes” value was 0.35±0.42 and 0.35. In addition, in data set [2], the IC50 stood at 4.1 ± 3.5 µM. In addition, the IC50 in data set [3] (Leishmania donovani) is 1.84 ± 0.9 µM. Besides, in data set [3], the “SI Values Promastigotes” value is 2.23±1.09 and 2.23. Further, the IC50 in data set [4] (setting [5]) amounted to 5.53 ± 0.3 µM. In addition, the IC50 in data set [4] (setting [6]) amounted to 1100 ± 50.3 µM. The IC50 in data set [4] (setting [7]) worked out at 19.2 ± 18.4 µM. Moreover, the half-maximal inhibitory concentration (IC50) in data set [4] (setting [8]) came to 5.28 ± 1.8 µM.

`O=C1C(Cl)=C(N(C(=O)c2ccc(F)cc2)C(=O)c2ccc(F)cc2)C(=O)c2ccccc21` [IMDNQ3, N-(3-Chloro-1,4-dioxo-1,4-dihydronaphthalen-2-yl)-4-fluoro-N-(4-fluorobenzoyl)-benzamide] gave a melting point of 284 to 286 °C. In addition, in data set [1], the IC50 worked out at 4.1 µM; the “SI Values Amastigotes” value is 6.06±1.77 and 6.06. Moreover, the IC50 in data set [2] was determined as 24.8 µM. Further, in data set [3] (Leishmania donovani), the IC50 worked out at 10.8 µM. Further, in data set [3], the “SI Values Promastigotes” value was 2.30±1.05 and 2.30. Besides, the IC50 in data set [4] (setting [5]) was 11 ± 12.9 µM. In addition, the IC50 in data set [4] (setting [6]) was 41.35 ± 0.21 µM. Moreover, in data set [4] (setting [7]), the IC50 was 2.32 ± 1.9 µM. In addition, the IC50 in data set [4] (setting [8]) turned out to be 3.23 ± 5.3 µM.

`O=C1C(Br)=C(N(C(=O)c2ccccc2Cl)C(=O)c2ccccc2Cl)C(=O)c2ccccc21` [IMDNQ5, N-(3-Bromo-1,4-dioxo-1,4-dihydronaphthalen-2-yl)-2-chloro-N-(2-chlorobenzoyl)-benzamide] yielded a melting point of 232 to 234 °C. Besides, in data set [1], the IC50 was 4.67 µM; the “SI Values Amastigotes” value is 1.01±0.21 and 1.01. In addition, the IC50 in data set [2] worked out at 4.7 µM. The IC50 in data set [3] (Leishmania donovani) turned out to be 31.3 µM. For the same compound, the “SI Values Promastigotes” value in data set [3] is 0.15 and 0.15±0.3. In addition, in data set [4] (setting [5]), the IC50 was 19 ± 1.5 µM. Further, the IC50 in data set [4] (setting [6]) was 0.57 µM. For the same compound, the IC50 in data set [4] (setting [7]) is 1.66 ± 0.5 µM. Besides, the IC50 in data set [4] (setting [8]) is 5.85 ± 2.2 µM.

`COc1ccc(C(=O)N(C(=O)c2ccc(OC)cc2)C2=C(Cl)C(=O)c3ccccc3C2=O)cc1` [IMDNQ9, 2-bis-(4-methoxybenzoyl)amino-3-chloro-1,4-naphthoquinone] came in with a melting point of 283 to 287 °C. In data set [1], the IC50 is 4.67 ± 0.8 µM; the “SI Values Amastigotes” value is 0.73±0.13 and 0.73. For the same compound, in data set [2], the IC50 came to 3.41 ± 1.1 µM. Also, the IC50 in data set [3] (Leishmania donovani) came out at 5.64 ± 0.9 µM. The “SI Values Promastigotes” value in data set [3] is 0.60±0.08 and 0.60. Also, the IC50 in data set [4] (setting [5]) turned out to be 77.3 ± 119 µM. Also, the IC50 in data set [4] (setting [6]) is 23.3 ± 9.2 µM. The IC50 in data set [4] (setting [7]) was 123 ± 35.1 µM. In data set [4] (setting [8]), the IC50 was 7.23 ± 0.7 µM.

For `COc1cc(C(=O)N(C(=O)c2cc(OC)c(OC)c(OC)c2)C2=C(Cl)C(=O)c3ccccc3C2=O)cc(OC)c1OC` [IMDNQ11, 2-bis-(3,4,5-trimethoxybenzoyl)amino-3-chloro-1,4-naphthoquinone], the melting point fell in the range of 171 to 172 °C. In addition, the IC50 in data set [1] was determined as 27.3 µM. Further, in data set [2], the half-maximal inhibitory concentration (IC50) was found to be 6.41 ± 2.9 µM. Also, in data set [3], the IC50 stood at 11.85 ± 0.001 µM; the “SI Values Promastigotes” value is 0.28±0.01 and 0.28. For the same compound, the IC50 in data set [3] (Leishmania donovani) amounted to 22.9 ± 0.9 µM. The IC50 in data set [4] (setting [5]) was found to be 198 ± 16.8 µM. In addition, in data set [4] (setting [6]), the IC50 turned out to be 22.7 ± 14.2 µM. Besides, the IC50 in data set [4] (setting [7]) is 4.06 ± 1.4 µM. Besides, in data set [4] (setting [8]), the IC50 was determined as 8.82 ± 2 µM.
